From patent US7270949B2, “Fluorescence based T-type channel assay” (Neuromed Pharmaceuticals Ltd., priority 2003, dated 2007) come the findings set out here.

Assay [1] concerns membrane potential of cells. Description: Membrane potential of cells with gramicidin, NMDG substituted for external sodium (FIG. 3). Format: cell-based. The following applies: 5 μg/ml gramicidin, absence of external sodium (NMDG). The procedure:
As shown, when 5 μg/ml gramicidin is added in the absence of external sodium, the membrane potential decreases to about −70 mV.

The subject of assay [2] is α1 subunit of T-type calcium channels. Description: Fluorescence based assay for T-type modulators (FLUO-4, gramicidin/NMDG, KCl pulse). The note with it: transfected HEK 293 cells; various concentrations; FIG. 5; positive control. Format: cell-based. The procedure:
Mammalian cell lines stably expressing α1 subunit of T-type calcium channels were constructed by transfecting α1 calcium channel subunit DNA into HEK 293 cells and selecting for antibiotic resistance. Briefly, a full-length T-type calcium channel α1 subunit was subcloned into an expression vector with a selectable marker, pcDNA3 (InvitroGen, San Diego, Calif.). The vector was transfected into HEK 293 cells by lipofection and the cells incubated for 16-20 hours. The cells were fed nonselective medium and incubated for an additional 24 hours, then trypsinized and plated at low density in selective medium supplemented with Geneticin (G418) at a concentration of between 600 to 800 μg/ml. […] After growing up each isolated colony to confluency to establish cell lines, the expression of T-type calcium channels was determined by Northern and Southern blotting. […]
Each well was then treated with fluorescence dye solution containing a mixture of 50 μg FLUO-4 AM (Molecular Probes, F-14201); 45.5 μl DMSO; 45.5 μl 20% Pluronic F-127 (Molecular Probes, P-6867) and 4 ml MKH buffer. […]
To each well, EB buffer was added also containing DMSO at a concentration equal to that of the test compounds for negative controls, the known blocker penfluoridol at 2.5 μM for positive control, and test compounds (diluted in DMSO) for experimental wells. […] Background fluorescence was read in all wells. […]

Take gramicidin: the membrane potential result in assay [1] is reported as “about −70 mV”.

Regarding `OC1(c2ccc(Cl)c(C(F)(F)F)c2)CCN(CCCC(c2ccc(F)cc2)c2ccc(F)cc2)CC1` [penfluoridol], in assay [2], the “blocking calcium ion transport (fluorescence)” value is recorded as “successful in blocking calcium ion transport”.
